Results reported in ChEMBL document CHEMBL4420075, “Seriniquinones, melanoma-specific anticancer agents” (2016).
Each block holds one compound with its values, some of them ahead of it. Activity calls are given as the source filed them. The calls are words filed in the database; no cut-off is given here.

Experiments:
[1] = target: T1, Dermcidin (Homo sapiens) (UniProt P81605); experiment: Binding affinity to dermcidin in human HCT116 cells at 50 uM incubated for 8 hrs by LC-MS/MS analysis; assay type: cell-based
T1 sequence (whole entry): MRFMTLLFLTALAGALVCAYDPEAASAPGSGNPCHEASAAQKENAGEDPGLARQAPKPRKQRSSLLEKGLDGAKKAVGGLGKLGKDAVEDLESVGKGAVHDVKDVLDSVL

[2] = Drug accumulation in human MALME-3M cells assessed as sub-cellular localization in endoplasmic reticulum measured up to 9 hrs by ER-tracker-blue based confocal microscopy; assay type: ADME, subcellular
[3] = target: T1, Dermcidin (Homo sapiens); experiment: Covalent binding affinity to dermcidin in human HCT116 cell lysates at 30 uM incubated for 8 hrs by Western blot analysis; assay type: subcellular; settings: Lysate
[4] = Drug accumulation in human MALME-3M cells assessed as sub-cellular localization in autophagosomes measured after 6 hrs by dansyl-cadaverine based confocal microscopy; assay type: ADME, subcellular, Autophagosome
[5] = Drug accumulation in human HCT116 cells assessed as sub-cellular localization in endoplasmic reticulum measured up to 9 hrs by ER-tracker-blue based confocal microscopy; assay type: ADME, subcellular; settings: hct-116, 9 h
[6] = species on record: Homo sapiens; experiment: Binding affinity to HSP70 in human HCT116 cells at 50 uM incubated for 8 hrs by LC-MS/MS analysis; assay type: cell-based
[7] = target: T1, Dermcidin (Homo sapiens); experiment: Binding affinity to dermcidin in human HCT116 cells at 50 uM incubated for 8 hrs by anti-IAF mAb based immunoprecipitation assay; assay type: cell-based
[8] = target: Glyceraldehyde-3-phosphate dehydrogenase (Homo sapiens) (UniProt P04406); experiment: Covalent binding affinity to GADPH in human HCT116 cell lysates at 30 uM incubated for 8 hrs by Western blot analysis; assay type: subcellular; settings: Lysate
[9] = target: T1, Dermcidin (Homo sapiens); experiment: Binding affinity to dermcidin in human HCT116 cell lysates at 3 to 30 uM incubated for 8 hrs by anti-IAF mAb based immunoprecipitation assay; assay type: subcellular; settings: Lysate
[10] = Drug accumulation in human HCT116 cells assessed as sub-cellular localization in autophagosomes measured after 6 hrs by dansyl-cadaverine based confocal microscopy; assay type: ADME, subcellular, Autophagosome; settings: hct-116, 6 h
[11] = target: Glyceraldehyde-3-phosphate dehydrogenase (Homo sapiens) (UniProt P04406); experiment: Binding affinity to GADPH in human HCT116 cells at 50 uM incubated for 8 hrs by LC-MS/MS analysis; assay type: cell-based
[12] = species on record: Homo sapiens; experiment: Binding affinity to actin in human HCT116 cells at 50 uM incubated for 8 hrs by LC-MS/MS analysis; assay type: cell-based
[13] = test system: HCT-116; experiment: Induction of autophagy in human HCT116 cells assessed as increase in of LC3A-II level at 17 uM incubated for 24 hrs by Western blot analysis; assay type: functional, cell-based
[14] = test system: HCT-116; experiment: Induction of autophagy in human HCT116 cells assessed as increase in of LC3B-II level at 17 uM incubated for 24 hrs by Western blot analysis; assay type: functional, cell-based
[15] = test system: HCT-116; experiment: Induction of apoptosis in human HCT116 cells assessed as induction of caspase-9 cleavage at 3 to 30 uM incubated for 24 hrs by Western blot analysis; assay type: functional, cell-based
[16] = Drug accumulation in human HCT116 cells assessed as sub-cellular localization at 5 uM incubated for 1 hr by DAPI staining based; assay type: ADME, cell-based; settings: hct-116, 1 h
[17] = test system: PC-3; experiment: Induction of auto-phagocytosis in human PC3 cells at 30 uM incubated for 1 hr by time course imaging assay; assay type: functional, cell-based
[18] = test system: HCT-116; experiment: Induction of cell cycle arrest in human HCT116 cells assessed as accumulation at S phase at 0.3 to 30 uM incubated for 18 to 24 hrs by propidium iodide staining based assay; assay type: functional
[19] = Drug accumulation in human HCT8 cells assessed as sub-cellular localization at 30 uM incubated for 1 hr by DAPI staining based; assay type: ADME, cell-based; settings: hct-8, 1 h
[20] = target: T1, Dermcidin (Homo sapiens); experiment: Covalent binding affinity to DCD-1L (unknown origin) at 50 uM incubated for 24 hrs by denatured SDS-PAGE gel electrophoresis
[21] = test system: HCT-116; experiment: Reduction in cyclin D2 protein expression in human HCT116 cells at 3 to 30 uM incubated for 24 hrs by Western blot analysis; assay type: functional, cell-based
[22] = Drug accumulation in human SF295 cells assessed as sub-cellular localization at 30 uM incubated for 1 hr by DAPI staining based; assay type: ADME, cell-based; settings: sf-295, 1 h
[23] = Drug accumulation in human MALME-3M cells assessed as sub-cellular localization at 30 uM incubated for 1 hr by DAPI staining based; assay type: ADME, cell-based
[24] = test system: HCT-116; experiment: Reduction in cyclin D1 protein expression in human HCT116 cells at 3 to 30 uM incubated for 24 hrs by Western blot analysis; assay type: functional, cell-based
[25] = Drug accumulation in human PC3 cells assessed as sub-cellular localization in endoplasmic reticulum at 30 uM incubated for 1 hr by time course imaging assay; assay type: ADME, subcellular; settings: pc-3, 1 h
[26] = Drug accumulation in human PC3M cells assessed as sub-cellular localization at 30 uM incubated for 1 hr by DAPI staining based; assay type: ADME, cell-based; settings: pc-3m
[27] = test system: HCT-116; experiment: Induction of apoptosis in human HCT116 cells assessed as induction of PARP cleavage at 3 to 30 uM incubated for 24 hrs by Western blot analysis; assay type: functional, cell-based
[28] = test system: HCT-116; experiment: Induction of autophagy in human HCT116 cells assessed as increase in of LC3A-II level incubated for 24 hrs by Western blot analysis; assay type: functional, cell-based
[29] = test system: HCT-116; experiment: Reduction in cyclin D3 protein expression in human HCT116 cells at 3 to 30 uM incubated for 24 hrs by Western blot analysis; assay type: functional, cell-based
[30] = test system: HCT-116; experiment: Induction of DNA fragmentation in human HCT116 cells at 0.3 to 30 uM incubated for 24 hrs by FACS analysis; assay type: functional, cell-based
[31] = test system: HCT-116; experiment: Induction of apoptosis in human HCT116 cells assessed as induction of caspase-7 cleavage at 3 to 30 uM incubated for 24 hrs by Western blot analysis; assay type: functional, cell-based
[32] = test system: HCT-116; experiment: Induction of autophagy in human HCT116 cells assessed as increase in of LC3B-II level incubated for 24 hrs by Western blot analysis; assay type: functional, cell-based
[33] = test system: HCT-116; experiment: Induction of apoptosis in human HCT116 cells assessed as induction of caspase-3 cleavage at 3 to 30 uM incubated for 24 hrs by Western blot analysis; assay type: functional, cell-based

Sequence of Glyceraldehyde-3-phosphate dehydrogenase (Homo sapiens) (P04406 2-335 limits assumed): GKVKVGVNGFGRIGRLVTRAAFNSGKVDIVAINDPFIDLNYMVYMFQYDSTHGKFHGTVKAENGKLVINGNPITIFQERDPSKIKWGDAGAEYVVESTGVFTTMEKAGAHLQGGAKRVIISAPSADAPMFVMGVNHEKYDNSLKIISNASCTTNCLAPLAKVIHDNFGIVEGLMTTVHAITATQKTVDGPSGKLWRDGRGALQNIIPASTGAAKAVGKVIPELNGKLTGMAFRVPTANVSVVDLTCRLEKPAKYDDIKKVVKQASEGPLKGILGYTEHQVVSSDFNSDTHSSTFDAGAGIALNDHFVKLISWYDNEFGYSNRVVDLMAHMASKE

Activity [1]: Active
Drug uptake [2]: Active
Activity [3]: Active
Drug uptake [4]: Active
Drug uptake [5]: Active
Activity [7]: Active
Activity [8]: Active
Activity [9]: Active
Drug uptake [10]: Active
Activity [11]: Active
SMILES: CN(C)c1ccc2c(CC(=O)NCCCCCCNC(=O)CCc3ccc4c(=O)c5c(sc6c(=O)c7ccccc7c(=O)c65)c(=O)c4c3)cc(=O)oc2c1
Activity [6]: Active
Activity [12]: Active

SMILES: COc1cc([C@@H]2c3cc4c(cc3[C@@H](O[C@@H]3O[C@@H]5CO[C@@H](C)O[C@H]5[C@H](O)[C@H]3O)[C@H]3COC(=O)[C@H]23)OCO4)cc(OC)c1O
Activity [13]: Active
Activity [14]: Active

Drug uptake [16]: Active
Drug uptake [2]: Active
Drug uptake [4]: Active
Drug uptake [5]: Active
Drug uptake [19]: Active
Activity [20]: Active
Drug uptake [22]: Active
Drug uptake [23]: Active
Drug uptake [25]: Active
Drug uptake [26]: Active
Drug uptake [10]: Active
SMILES: O=c1c2ccccc2c(=O)c2c1sc1c(=O)c3ccccc3c(=O)c12
Activity [15]: Active
Activity [17]: Active
Activity [18]: Dose-dependent effect
Activity [21]: Active
Activity [24]: Active
Activity [27]: Active
Activity [28]: Dose-dependent effect
Activity [29]: Active
Activity [30]: Dose-dependent effect
Activity [31]: Active
Activity [32]: Dose-dependent effect
Activity [33]: Active
